Data as given in US7179460B2, “Bacterial composition and its use” (priority 2002, dated 2007).

System: Bifidobacterium lactis PTA-4802
Assay: Antibiotic sensitivity profile (NCCLS M11-A5 agar dilution MIC)
Assay type: cell-based
Conditions: MRS + cysteine agar; sensitivity of strain PTA-4802 to the antibiotic

| Compound | Antibiotic Sensitivity (S/I/R) |
| --- | --- |
| Gentamicin | R (MIC >64 ug/ml = Resistant (R)) |
| CC1(C)S[C@@H]2[C@H](NC(=O)Cc3ccccc3)C(=O)N2[C@H]1C(=O)O [Penicillin G] | S (MIC <4 ug/ml = Sensitive (S)) |
| Neomycin | R (MIC >64 ug/ml = Resistant (R)) |
| Polymyxin B | R (MIC >64 ug/ml = Resistant (R)) |
